Consider four compounds from patent publication US4220644A, “7-Acylamino-3-(substituted tetrazolyl thiomethyl) cephalosporins” (SmithKline Corporation, priority 1976, dated 1980).

≈ marks a conversion by molar mass, not a printed value. Read-outs that look alike come from different tables or passages of the source.

The subject of experiment [1] is Strep. Faecalis HH 34358. Briefly: MIC in vitro (Table 1), Strep. Faecalis HH 34358. It is filed as cell-based. Conditions: in vitro, Strep. Faecalis HH 34358. The source says: (§1) Compound names corresponding to numbers are given in the experimental section. For comparative purposes, data for cephamandole, which is 7-mandelamido-3-(1-methyltetrazol-5-ylthiomethyl)-3-cephem-4-carboxylic acid, is also given in Tables 1 and 2.

Experiment [2] concerns S. aureus SK 23390. Briefly: MIC in vitro (Table 1), S. aureus SK 23390. It is filed as cell-based.
Source text: as §1

The subject of experiment [3] is Entero. aerog. ATCC 13048. The experiment is described as follows: MIC in vitro (Table 1), Entero. aerog. ATCC 13048. It is filed as cell-based.
Source text: as §1

Experiment [4] concerns Serra. Marc. ATCC 13880. The experiment is described as follows: MIC in vitro (Table 1), Serra. Marc. ATCC 13880. It is filed as cell-based.
Source text: as §1

For experiment [5], the system named is Kleb. pneumo. SK 1200. Briefly: MIC in vitro (Table 1), Kleb. pneumo. SK 1200. It is filed as cell-based.
Source text: as §1

Experiment [6] has as its system S. villaluz. The experiment is described as follows: MIC in vitro (Table 1), S. villaluz. It is filed as cell-based. The source says: (§2) The compounds of Formula I have antibacterial activity against both Gram-positive and Gram-negative organisms. […] Compound names corresponding to numbers are given in the experimental section. For comparative purposes, data for cephamandole, which is 7-mandelamido-3-(1-methyltetrazol-5-ylthiomethyl)-3-cephem-4-carboxylic acid, is also given in Tables 1 and 2.

Experiment [7] relates to Salmonella ATCC 12176. Briefly: MIC in vitro (Table 1), Salmonella ATCC 12176. It is filed as cell-based.
Source text: as §2

The test system of experiment [8] is Entero. cloacae HH 31254. Briefly: MIC in vitro (Table 1), Entero. cloacae HH 31254. It is filed as cell-based.
Source text: as §1

Experiment [9] concerns E. coli SK 12140. Briefly: MIC in vitro (Table 1), E. coli SK 12140. It is filed as cell-based.
Source text: as §1

Experiment [10] deals with E. coli HH 33779. Briefly: MIC in vitro (Table 1), E. coli HH 33779. It is filed as cell-based.
Source text: as §1

In experiment [11] the test system is Shigella HH 117. Briefly: MIC in vitro (Table 1), Shigella HH 117. It is filed as cell-based.
Source text: as §2

Experiment [12] relates to S. aureus HH 127. Briefly: MIC in vitro (Table 1), S. aureus HH 127. It is filed as cell-based.
Source text: as §1

Experiment [13] has as its system Kleb. pneumo. SK 4200. Briefly: MIC in vitro (Table 1), Kleb. pneumo. SK 4200. It is filed as cell-based.
Source text: as §1

Experiment [14] has as its system Proteus morgani 179. Briefly: MIC in vitro (Table 1), Proteus morgani 179. It is filed as cell-based.
Source text: as §1

Experiment [15] concerns E. coli 12140. Briefly: In vivo mouse protection (Table 2), E. coli 12140.
Source text: as §1

Experiment [16] has as its system Pseudo. sp. HH 63. The experiment is described as follows: MIC in vitro (Table 1), Pseudo. sp. HH 63. It is filed as cell-based. To be noted: in vitro, Pseudo. sp. HH 63; read-out: MIC.
Source text: as §2

Experiment [17] concerns Kleb. pneumo. 4200. Briefly: In vivo mouse protection (Table 2), Kleb. pneumo. 4200.
Source text: as §1

Where [18] appears, read: Enterococcus faecalis, read-out: MIC.
The mark [19] stands for this setting: in vitro, Serra. Marc. ATCC 13880, read-out: MIC.
[20] abbreviates: Salmonella, ATCC12176, in vitro, read-out: MIC.
The mark [21] stands for this setting: Escherichia coli, 12140, po, E. coli 12140, p.o.
The mark [22] stands for this setting: Escherichia coli, 12140, sc, E. coli 12140, s.c.
[23] abbreviates: Escherichia coli, SK12140, in vitro.
Setting [24] is: Escherichia coli, HH33779, in vitro, E. coli HH 33779, read-out: MIC.
Where [25] appears, read: Shigella, HH117, in vitro, read-out: MIC.
The mark [26] stands for this setting: Staphylococcus aureus, HH127, in vitro, S. aureus HH 127, read-out: MIC.

What is called MIC is the lowest concentration found to suppress growth. Broadly, the ED50 is the midpoint of the dose-response relation. Read a high ED50 as a need for a large dose.

Consider “7-(α-Carboxythienylacetamido)-3-(1-carboxymethyltetrazol-5-ylthiomethyl)-3-cephem-4-carboxylic acid [XIX]”, for which the MIC in experiment [1] was found to be 200 µg/mL; in experiment [2] (in vitro, S. aureus SK 23390), 50 µg/mL; in experiment [3] (in vitro, Entero. aerog. ATCC 13048), 50 µg/mL; in [4] (in vitro, Serra. Marc. ATCC 13880), 50 µg/mL; in [5], 6 µg/mL; in [6], 100 µg/mL. Moreover, the MIC in experiment [7] (in vitro) was found to be 25 µg/mL; in experiment [8] (in vitro, Entero. cloacae HH 31254), 50 µg/mL; in experiment [9] (in vitro), 25 µg/mL; in [10] (in vitro, E. coli HH 33779), 50 µg/mL; in experiment [11] (in vitro), 6 µg/mL; in experiment [12] (in vitro, S. aureus HH 127), 50 µg/mL. Further, the MIC in [13] (in vitro, Kleb. pneumo. SK 4200) came out at 50 µg/mL; in [14], 6 µg/mL.

`O=C(O)Cn1nnnc1SCC1=C(C(=O)O)N2C(=O)C(NC(=O)[C@H](O)c3ccccc3)[C@H]2SC1` (stereo partly drawn) [I, 7-D-Mandelamido-3-(1-carboxymethyltetrazol-5-ylthiomethyl)-3-cephem-4-carboxylic acid]: the MIC amounted to 100 µg/mL (≈ 197 µM) in [1] (setting [18]); 1.6 µg/mL (≈ 3.16 µM) in experiment [2] (Staphylococcus aureus, SK23390); 3.1 µg/mL (≈ 6.12 µM) in experiment [2] (Staphylococcus aureus, SK23390, in vitro, S. aureus SK 23390, read-out: MIC); 12.5 µg/mL (≈ 24.7 µM) in experiment [3]; 6.3 µg/mL (≈ 12.4 µM) in [3] (in vitro, Entero. aerog. ATCC 13048, read-out: MIC); 25 µg/mL (≈ 49.4 µM) in [4]. Also, the MIC in [4] (setting [19]) was found to be 100 µg/mL (≈ 197 µM); in experiment [5] it was 1.6 µg/mL (≈ 3.16 µM); in [5] (read-out: MIC), 0.8 µg/mL (≈ 1.58 µM); in [7] (setting [20]) it was 1.6 µg/mL (≈ 3.16 µM); in experiment [7] (in vitro), 0.8 µg/mL (≈ 1.58 µM); in experiment [8] (Enterobacter cloacae, HH31254, in vitro, Entero. cloacae HH 31254, read-out: MIC) it was 0.8 µg/mL (≈ 1.58 µM). Also, the MIC in experiment [9] (setting [23]) was determined as 1.6 µg/mL (≈ 3.16 µM); in experiment [10] (Escherichia coli, HH33779), 1.6 µg/mL (≈ 3.16 µM); in experiment [10] (setting [24]), 6.3 µg/mL (≈ 12.4 µM); in experiment [11] (setting [25]) it was 1.6 µg/mL (≈ 3.16 µM); in experiment [11] (in vitro) it was 0.8 µg/mL (≈ 1.58 µM); in experiment [12] (Staphylococcus aureus, HH127), 6.3 µg/mL (≈ 12.4 µM). The MIC in experiment [13] was 1.6 µg/mL (≈ 3.16 µM); in experiment [13] (in vitro, Kleb. pneumo. SK 4200, read-out: MIC) it was 0.8 µg/mL (≈ 1.58 µM); in experiment [16] it was more than 200 µg/mL; in experiment [14], 3.1 µg/mL (≈ 6.12 µM). The ED50 amounted to 50 mg/kg in experiment [15] (setting [21]); 1.56 mg/kg in experiment [15] (setting [22]); 25 mg/kg in [17] (po, Kleb. pneumo. 4200, p.o.).

Regarding `CNC(=O)Cn1nnnc1SCC1=C(C(=O)O)N2C(=O)C(NC(=O)[C@H](O)c3ccccc3)[C@H]2SC1` (stereo partly drawn) [III, 7-D-Mandelamido-3-(1-N-methylcarbamoylmethyltetrazol-5-ylthiomethyl)-3-cephem-4-carboxylic acid], the MIC in [1] (setting [18]) stood at 25 µg/mL (≈ 48.1 µM); in experiment [2] (Staphylococcus aureus, SK23390), 3.1 µg/mL (≈ 5.97 µM); in experiment [3], 3.1 µg/mL (≈ 5.97 µM); in experiment [4] (setting [19]), 25 µg/mL (≈ 48.1 µM); in experiment [5], 3.1 µg/mL (≈ 5.97 µM); in experiment [7] (setting [20]), 0.8 µg/mL (≈ 1.54 µM). Also, the MIC came to 3.1 µg/mL (≈ 5.97 µM) in [8] (Enterobacter cloacae, HH31254); 3.1 µg/mL (≈ 5.97 µM) in [9] (setting [23]); 3.1 µg/mL (≈ 5.97 µM) in [10] (Escherichia coli, HH33779); 3.1 µg/mL (≈ 5.97 µM) in experiment [11] (setting [25]); 1.6 µg/mL (≈ 3.08 µM) in experiment [12] (setting [26]); 3.1 µg/mL (≈ 5.97 µM) in experiment [13]. In addition, the MIC in experiment [16] is more than 200 µg/mL; in experiment [14], 3.1 µg/mL (≈ 5.97 µM). Besides, the ED50 was 34 mg/kg in [15] (setting [21]); 1.56 mg/kg in experiment [15] (setting [22]); more than 50 mg/kg in [17] (po, Kleb. pneumo. 4200, p.o.); 2.8 mg/kg in experiment [17] (sc, Kleb. pneumo. 4200, s.c.).

For `CN(C)C(=O)Cn1nnnc1SCC1=C(C(=O)O)N2C(=O)C(NC(=O)[C@H](N)c3ccc(O)cc3)C2SC1` (stereo partly drawn) [IX, 7-(D-α-Amino-4-hydroxyphenylacetamido)-3-(1-N,N-dimethylcarbamoylmethyltetrazol-5-ylthiomethyl)-3-cephem-4-carboxylic acid], the MIC in experiment [1] (setting [18]) was 25 µg/mL (≈ 45.6 µM); in experiment [2] (Staphylococcus aureus, SK23390), 6.3 µg/mL (≈ 11.5 µM); in [3], 12.5 µg/mL (≈ 22.8 µM); in experiment [4] (setting [19]) it was 200 µg/mL (≈ 365 µM); in [5], 6.3 µg/mL (≈ 11.5 µM); in experiment [7] (setting [20]), 3.1 µg/mL (≈ 5.65 µM). For the same compound, the MIC in experiment [8] (Enterobacter cloacae, HH31254) came to 3.1 µg/mL (≈ 5.65 µM); in experiment [9] (Escherichia coli, SK12140, in vitro, read-out: MIC), 12.5 µg/mL (≈ 22.8 µM); in [10] (setting [24]), 12.5 µg/mL (≈ 22.8 µM); in experiment [11] (setting [25]), 6.3 µg/mL (≈ 11.5 µM); in experiment [12] (setting [26]), 12.5 µg/mL (≈ 22.8 µM); in experiment [13] it was 6.3 µg/mL (≈ 11.5 µM). The MIC in experiment [16] was more than 200 µg/mL; in experiment [14] (read-out: MIC) it was 100 µg/mL (≈ 182 µM). The ED50 in experiment [15] (setting [21]) stood at 28.5 mg/kg; in experiment [15] (setting [22]), 1.56 mg/kg; in experiment [17] (po, Kleb. pneumo. 4200, p.o.), 18 mg/kg; in experiment [17] (sc, Kleb. pneumo. 4200, s.c.), 3.7 mg/kg.
